How the values were obtained:
Type in all cases: cell-based, human
[1] = system: Bulk PBMNC; assay: S100+ cells in bulk PBMNC cultures with non-cytokine additives; conditions: day 7; average
Procedure: Immunocytochemical staining: PBS (phosphate buffered saline) was made by dissolving 5 PBS tablets into 1000 ml millipore water. Cytospin slides were soaked in PBS. Endogenous peroxidase activity was blocked by treating slides with hydrogen peroxide/PBS (2 ml 30% H2O2+30 ml PBS) for 10 min. Slides were rinsed with PBS one time. Non-specific binding sites were blocked by incubating with normal serum matching source of secondary antibody (i.e. if secondary antibody is biotinylated goat-anti-mouse, used normal goat serum) at room temp. for 15 min. in a humidified environment. Excess serum was shaken from slides and placed 100 ul of primary antibody on slide, making sure cells are covered with liquid and incubated in humidified environment, room temp, for one hour. Negative control slides were incubated with normal serum for this hour. Slides were rinsed 3 times with PBS. Slides were incubated with biotinylated antibody reactive against the primary antibody (i.e. if primary antibody is mouse-anti-human, use a biotinylated goat-anti-mouse antibody) for 1 hour in humidity. Slides were rinsed 3 times with PBS. Slides were incubated with streptavidin-peroxidase, 2 drops/slide, for 30 min. in humidity. Slides were rinsed 3 times with PBS.
Chromagen solution was made with 5 ml millipore water+2 drops of chromagen buffer+1 drop of concentrated chromagen+1 drop of substrate, and 4-5 drops were added to each slide. […] Slides were counterstained with hematoxylin for about 5 min, or until cell nuclei were stained purple. Cells were rinsed with tap water and allowed to air dry. Slides were covered with crystal mount and oven dried at 80 degrees for 15 min. Slides were allowed to cool, then coversliped with mounting medium.
Culture of Bulk PBMNC: PBMNC cells were cultured in X-VIVO 15™ supplemented with 2 mM L- glutamine. Cultures were initiated at 5×^05 cells/ml in PL2417 gas-permeable containers (20 ml). GM-CSF and IL-4 were added to the cultures at final concentrations of 50 ng/ml and 1000 U/ml or non-cytokine additives such as Vitamin D3 at 2.5 uM, Vitamin E at 0.1%, Linoleic Acid at 5 ug/ml, or Ca++ Ionophore at 10 mM. Addition and subtraction of cells, media, and growth factors to and from PL2417 gas-permeable containers was accomplished by spiking a Sampling Site Coupler into the sample port of the container followed by use of syringes and needles. Cells were cultured in a 5% CO2, ambient O2, 37° C. humidified incubator for 7 days.
(§1) Cytospin slide preparation, Wright-Geimsa and immunohistochemical staining of the cultured cells were conducted as described in Example 1 and 2 above. Mixed lymphocyte reactions (MLR's) were setup using T cells (responders) and dendritic cell enriched cultures (stimulators) from bulk PBMNC cultures, as described above in Example 1.
The S100 protein is a nerve cell protein that has been associated with dendritic cells. In Table 47, at day 7 of culture, the highest percent of S100+ cells was present in the GM-CSF/IL-4 culture (13%).

[2] = system: adherent PBMNC; assay: DC morphology (Wright-Geimsa) of plastic adherent cells cultured with non-cytokine additives
Procedure: Cytofunnels were attached to microscope slides. 50,000 to 100,000 cells were removed from each culture and resuspended in approximately 100 to 200 ul of PBS-CMF. Slides were placed in the Cytospin® centrifuge and spun at 100 rpm for 4 min. Cytofunnels were removed from the slides and the slides were air dried for 1 minute. Ten drops of Wright-Geimsa stain were placed onto each slide and allowed to fix for 1 to 2 minutes. Ten drops of water were added to each slide and allowed to sit for 2 to 4 minutes. The slides were rinsed and air dried.
Reading of Cytospin Slides: Slides were read under phase contrast microscopy, 40× and 60× oil magnification. One hundred cells were identified and characterized morphologically as either dendritic cells or non-dendritic cells (lymphocytes and monocyte, or CD34+-derived cells in those cases). Digital images were taken using a color monitor and color video printer.
(§2) Enrichment and Culture of Adherent Cells Using Polystyrene Tissue Culture Plates: PBMNC were resuspended in culture media (X-VIVO 15™+10% autologous serum) at 2×10^6 cells/ml. Cells were placed into 48 well polystyrene tissue culture plates […] and incubated for 2 hours in a 5% CO2, ambient O2, 37° C. humidified incubator. Non-adherent cells were removed from the plates then wells were rinsed with X-VIVO 15™ containing no serum. Cells remaining in the wells were adherent cells. These cells were cultured by adding 2 ml of X-VIVO 15™ to each well plus GM-CSF and IL-4 at final concentrations of 50 ng/ml and 1000 U/ml or the following: cAMP at 0.5 mM, dibutyryl cAMP at 0.1 mM, NaF at 0.25 mM, theophylline at 0.5 mM, PGE at 0.1 mM, Vitamin D3 at 2.5 uM, Vitamin E at 0.1%, Retinoic Acid at 10^−6 M, PMA at 1 pM, Linoleic Acid at 5 ug/ml, or Ca^++ Ionophore at 10 mM. Furthermore, cells were also cultured with the above non-cytokine additives plus GM-CSF at 50 ng/ml. Cells were cultured in a 5% CO2, ambient O2, 37° C. humidified incubator for 7 days.
as §1
(§3) Results: In the set of experiments using plastic adherent cells grown in polystyrene tissue culture plates, a Day 0 analysis of the cells was not performed. However, these cultures were analyzed for the presence of DC on days 4 and 7. Analysis perfomed were cell counts, viability via propidium iodide, morphology under Wright-Geimsa staining, and immunohistochemical staining using an anti-S100 antibody.

[3] = system: adherent PBMNC; assay: Cell counts and viability of plastic adherent cells cultured with non-cytokine additives in polystyrene plates; design: % VIABLE: concentration or dose not given beside the values; conditions: for % VIABLE: propidium iodide
Procedure: Viability Determination: Prior to acquisition, 5 ul propidium iodide (PI) was added to each tube for use as a viability check. The cells were vortexed and acquired within 10 min of PI addition.
as §2, §3

Q: With `CCCCC/C=C\C/C=C\CCCCCCCC(=O)O` [Linoleic Acid] as the molecule, how does the “percent of S100+ cells” value [1] read?
A: equivalent average percentages

Q: And the “% DC” value ([2]; Day 4, with GM-CSF present)?
A: 8.00%

Q: And the “% DC” value ([2]; Day 4, without GM-CSF)?
A: 3.00%

Q: What about the “% DC” value ([2]; Day 7, with GM-CSF present) of the same molecule?
A: 9.00%

Q: And the “% DC” value ([2]; Day 7, without GM-CSF)?
A: 6.00%

Q: What about the “morphologically identified DC” value ([2]; day 7, without GM-CSF added to additives) of the same molecule?
A: next highest percentages

Q: What about the “TOTAL CELLS” value ([3]; Day 4, with GM-CSF present) of the same molecule?
A: 1.41E + 05

Q: What about the “% VIABLE” value ([3]; Day 4, with GM-CSF present) of the same molecule?
A: 96.07%

Q: And the “TOTAL CELLS” value ([3]; Day 4, without GM-CSF)?
A: 1.99E + 05

Q: What about the “% VIABLE” value ([3]; Day 4, without GM-CSF) of the same molecule?
A: 78.84%

Q: And the “TOTAL CELLS” value ([3]; Day 7, with GM-CSF present)?
A: 7.85E + 05

Q: What about the “% VIABLE” value ([3]; Day 7, with GM-CSF present) of the same molecule?
A: 82.63%

Q: What about the “TOTAL CELLS” value ([3]; Day 7, without GM-CSF) of the same molecule?
A: 1.19E + 05

Q: What about the “% VIABLE” value ([3]; Day 7, without GM-CSF) of the same molecule?
A: 82.69%
